In publication PMC9781827, “Isolation and Identification of Anti-Inflammatory Peptide from Goose Blood Hydrolysate to Ameliorate LPS-Mediated Inflammation and Oxidative Stress in RAW264.7 Macrophages” (Molecules, 2022):

Assays:
[1] = system: SOD; assay: SOD activity in LPS-mediated RAW264.7 macrophages; assay type: cell-based; details: LPS alone; mean ± S.D., n = 3
Experimental: (§1) The culture medium was collected and centrifuged at 3000× g for 10 min. Then, the inflammatory cytokines levels of TNF-α (MB-50051A), IL-1β (MB-50064B) and IL-6 (MB-50054A) in the culture medium were determined with ELISA kits (Jiangsu Enzyme marker Biotechnology Co., Ltd., Yancheng, China). […] (7) Add 50 μL of stop solution to each well, and measure its absorbance value at 450 nm wavelength. The activities of SOD, GSH-Px and the levels of ROS and Nitric oxide (NO) in macrophages were determined with spectrophotometric kits. […] The absorbance value of miscible liquid was measured at 450 nm wavelength by a multifunctional microplate reader; GSH-Px: 0.2 mL of sample was mixed with 0.2 mL GSH-Px (1 mmol/L) and performed at 37 °C for 5 min. […] The absorbance value was measured at 412 nm wavelength by a multifunctional microplate reader; ROS: DCFH-DA probe was added directly to serum-free medium: DCFH-DA was generally diluted with serum-free medium at a final concentration of 10 µM at 1:1000. […] In general, obvious green fluorescence can be observed in positive control cells after 20 min of stimulation. […] It can also be detected according to FITC fluorescence detection conditions. The results were expressed as fluorescence values.

[2] = system: GSH-Px; assay: GSH-Px activity in LPS-mediated RAW264.7 macrophages; assay type: cell-based; details: LPS alone; mean ± S.D., n = 3
Experimental: as §1

Substance: lipopolysaccharide [LPS]
- level of SOD [1]: 24.43 ± 1.41 U/mg prot
- level of GSH-Px [2]: 44.63 ± 2.72 U/mg prot
